Results as given in patent publication US20220220095A1, “N-((HETEROARYL)METHYL)-1-TOSYL-1H-PYRAZOLE-3-CARBOXAMIDE DERIVATIVES AS Kv3 POTASSIUM CHANNEL ACTIVATORS FOR TREATING NEUROLOGICAL AND [sequence] DISORDERS” (H. Lundbeck A/S, priority 2019, published 2022).

Target: T1, hKv3.1b (Homo sapiens, UniProt P48547)
T1 construct: expressed in transfected cells
T1 sequence (P48547 1-585 isoform P48547-2): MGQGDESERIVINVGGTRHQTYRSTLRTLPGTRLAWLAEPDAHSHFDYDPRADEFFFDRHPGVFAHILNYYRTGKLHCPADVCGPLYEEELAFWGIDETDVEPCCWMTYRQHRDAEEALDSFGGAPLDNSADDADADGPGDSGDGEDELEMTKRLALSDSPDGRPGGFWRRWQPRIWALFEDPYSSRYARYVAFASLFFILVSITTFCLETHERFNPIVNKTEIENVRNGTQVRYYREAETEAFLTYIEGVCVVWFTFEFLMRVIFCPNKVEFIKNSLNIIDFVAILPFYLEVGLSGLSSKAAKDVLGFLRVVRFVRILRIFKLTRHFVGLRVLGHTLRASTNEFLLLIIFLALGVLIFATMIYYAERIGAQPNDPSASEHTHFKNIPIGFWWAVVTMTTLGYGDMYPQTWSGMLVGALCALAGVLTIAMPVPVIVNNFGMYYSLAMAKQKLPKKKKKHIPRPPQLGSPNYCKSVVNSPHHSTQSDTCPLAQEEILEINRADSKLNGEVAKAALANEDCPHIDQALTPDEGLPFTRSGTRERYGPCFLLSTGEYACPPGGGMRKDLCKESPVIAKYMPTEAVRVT
Experiment: Automated whole-cell patch-clamp (QPatch-16x) on HEK-293 cells stably expressing hKv3.1b: shift of voltage threshold for channel activation
Format: cell-based
Conditions: HEK-293 hKv3.1b; for ECdelta5mV: concentration needed to shift the threshold 5 mV, read out from fitted concentration response curve; for Max Delta threshold: maximum absolute shift of activation threshold to more hyperpolarized potentials at the tested concentrations (0.37, 1.11, 3.33, 10, 30 μM)

With `Cc1cnc(CNC(=O)c2ccn(S(=O)(=O)c3cc(C)c(F)c(C)c3)n2)cn1` [Compound 81, 1-(4-fluoro-3,5-dimethyl-phenyl)sulfonyl-N-[(5-methylpyrazin-2-yl)methyl]pyrazole-3-carboxamide] as the compound, how does the ECdelta5mV read?
The ECdelta5mV was 3000 nM.

And the “Max Delta threshold” value?
The value was 17 mV.

For `COc1ccc(S(=O)(=O)n2ccc(C(=O)NCc3cnc(C)cn3)n2)c(Cl)c1` [Compound 82, 1-(2-chloro-4-methoxy-phenyl)sulfonyl-N-[(5-methylpyrazin-2-yl)methyl]pyrazole-3-carboxamide], which ECdelta5mV is on record?
Its ECdelta5mV is 1600 nM.

What about the “Max Delta threshold” value of the same compound?
Its value is 29 mV.

With `Cc1cnc(CNC(=O)c2ccn(S(=O)(=O)c3c(C)cc(F)cc3C)n2)cn1` [Compound 83, 1-(4-fluoro-2,6-dimethyl-phenyl)sulfonyl-N-[(5-methylpyrazin-2-yl)methyl]pyrazole-3-carboxamide] as the compound, how does the ECdelta5mV read?
Its ECdelta5mV is 2700 nM.

What about the “Max Delta threshold” value of the same compound?
The value was 21 mV.

`Cc1cnc(CNC(=O)c2ccn(S(=O)(=O)c3ccccc3Cl)n2)cn1` [Compound 84, 1-(2-chlorophenyl)sulfonyl-N-[(5-methylpyrazin-2-yl)methyl]pyrazole-3-carboxamide] was tested. Which ECdelta5mV did it give?
The ECdelta5mV was 7700 nM.

What about the “Max Delta threshold” value of the same compound?
The value was 12 mV.

With `COc1ccc(S(=O)(=O)n2ccc(C(=O)NCc3ncccc3F)n2)cc1` [Compound 86, N-[(3-fluoro-2-pyridyl)methyl]-1-(4-methoxyphenyl)sulfonyl-pyrazole-3-carboxamide] as the compound, how does the ECdelta5mV read?
The ECdelta5mV was 2400 nM.

And the “Max Delta threshold” value?
Its value is 19 mV.
